# Legend:
# [1] = test system: wt and cTnI-G203S cardiac myocytes; assay: Mitochondrial membrane potential (JC-1) after in vitro peptide exposure; type: cell-based, mouse; details: 10 μM BayK(−), calcium-free HBS
# Protocol: Fluorescence was measured on a Hamamatsu Orca ER digital camera attached to an inverted Nikon TE2000-U microscope. Fluorescent indicator 5,5′,6,6′-tetrachloro-1,1′,3,3′-tetraethylbenzimidazolylcarbocyanine iodide was used to measure Ψm in cardiac myocytes, as previously described (JC-1, Molecular Probes) ([61]). Autofluorescence was used to measure flavoprotein oxidation in cardiac myocytes based on previously described methods ([13], [29], [62]). Responses to drugs were reported as a percentage increase from the basal average. Detailed methods are provided in SI Appendix.
# Supporting Materials and Methods
# Isolation of ventricular myocytes
# Myocytes were isolated from wt and cTnI-G203S mice. Animals were anesthetized with pentobarbitone sodium (240 mg/kg) via intraperitoneal injection prior to excision of the heart. Cells were isolated as previously described (1-3). Mouse hearts were excised, cannulated onto a Langendorff apparatus via the aorta, and perfused with Krebs-Henseleit Buffer (KHB) containing […]
# O2/CO2 at 37°C) for 4 min at 37°C. Hearts were then perfused with KHB supplemented with 2.4 mg/ml collagenase B for 3 min, followed by a further 8 min perfusion in the presence of 40 μM calcium. Following perfusion, aorta and atria were removed then ventricles teased apart and triturated to dissociate myocytes into suspension. Myocyte suspension was spun at 500 RPM for 3 min, supernatant discarded, and myocytes resuspended in calcium free Hepes-Buffered Solution […]
# Hepes and 2 glutamine (pH = 7.4 at 37°C) in the presence or absence of 3 mM EGTA (for 0 mM calcium experiments). For calcium containing experiments, calcium was titrated back to achieve a final extracellular concentration of 1.8 mM. […]
# Axopatch 200B voltage-clamp amplifier (Molecular Devices) with a Digidata 1440A interface and pClamp10.5 software (Molecular Devices). A Ag/AgCl electrode was used to ground the bath. Once the whole-cell configuration was achieved, the holding potential was set at –80 mV. […]
# For calcium transient studies, microelectrodes contained (in mM): KCl 20, NaCl 10, MgCl2 2, CaCl2 0.03, potassium L-glutamate 120, EGTA 0.1, HEPES 5 and MgATP 5 (pH adjusted to 7.2 at 37°C with NaOH) supplemented with 2 µM Fura-2 AM (Fura-2, Molecular Probes, Eugene, Oregon). […]
# NaCl 140, KCl 5.4, CaCl2 1, MgCl2 0.5, HEPES 5.5 and glucose 11 (pH adjusted to 7.6 with NaOH), […]
# Fluorescence was measured on a Hamamatsu Orca ER digital camera attached to an inverted Nikon TE2000-U microscope. […]
# (§1) Additionally, individual 580 nm and 535 nm wavelength signals were assessed in each experiment to determine whether the fluorescent indicator was accurately measuring Ψm. […] Ratiometric JC-1 or flavoprotein fluorescent signals were quantified by manually tracing myocytes and subtracting an equivalent background region […]
# [2] = test system: myocytes isolated from wt and cTnI-G203S mice; assay: Mitochondrial membrane potential (JC-1) in myocytes isolated from treated mice; type: in vivo, mouse
# [3] = test system: BALB/c nude mice; details: mouse, in vivo
# Protocol: Eight-week-old male BALB/c nude mice were used to assess in vivo cardiac uptake and bio-distribution of sulfo-Cyanine7-labeled AID(S)-TAT and AID-TAT (Cy7, W&J PharmaChem) using a CRi Maestro 2 multispectral imaging system (Cambridge Research and Instrumentation) based on previously described methods ([63]). All studies were performed in mice anesthetized with isoflurane (2 to 4%), followed by intraperitoneal injection of pentobarbitone sodium (240 mg/kg), as approved by the Animal Ethics Committee of The University of Western Australia in accordance with the 2013 Australian Code for the Care and Use of Animals for Scientific Purposes ([58]). Detailed methods are provided in SI Appendix.
# 50 ms, Molecular Probes, Eugene, Oregon) (5). Cells were incubated in calcium-free HBS (supplemented with 3 mM EGTA and 200 nM JC-1) for at least 3 h prior to measuring changes in Ψm. Sodium cyanide (NaCN, 40 mM, mitochondrial electron transport blocker) was added at the end of each experiment to collapse Ψm, confirming that the JC-1 signal was indicative of Ψm.
# as §1
sequence,measurement,setting,value
QQLEEDLKGYLDWITQAE [AID-TAT],increase in Ψm (JC-1) in response to BayK(−),"[1]; cTnI-G203S myocytes, 1 μM peptide in vitro",attenuated the response
same,increase in Ψm (JC-1) in response to BayK(−),"[1]; cTnI-G203S myocytes, 10 μM peptide in vitro",significantly attenuated the response
same,increase in Ψm (JC-1) in response to BayK(−),"[1]; wt myocytes, 1 μM peptide in vitro",attenuated the response in cTnI-G203S but not wt myocytes
same,increase in Ψm (JC-1) in response to BayK(−),"[1]; wt myocytes, 10 μM peptide in vitro",significantly attenuated the response
same,cardiac Ψm and mitochondrial metabolic activity (flavoprotein oxidation) following BayK(−),[2]; myocytes from cTnI-G203S mice with established cardiomyopathy treated 10 μM 3×/wk/5 wk from 30 wk,does not restore cardiac Ψm or mitochondrial metabolic activity to wt levels
same,increase in Ψm (JC-1) following BayK(−),[2]; myocytes from precardiomyopathic cTnI-G203S mice treated 10 μM i.p. 3×/wk/5 wk from 20 wk,reduced this response to a level comparable to that observed in wt myocytes
same,"Cy7 decay (clearance) in left or right kidney, or liver",[3],no significant difference
